# From US7425631B2 (Amgen Inc., priority 2003, dated 2008)
# Target: T1, human bradykinin B1 receptor (Homo sapiens, UniProt P46663)
# T1 construct: expressed in transfected cells; host or cells: CHO-d-AQN cells (membranes prepared in-house)
# T1 sequence (P46663 1-353): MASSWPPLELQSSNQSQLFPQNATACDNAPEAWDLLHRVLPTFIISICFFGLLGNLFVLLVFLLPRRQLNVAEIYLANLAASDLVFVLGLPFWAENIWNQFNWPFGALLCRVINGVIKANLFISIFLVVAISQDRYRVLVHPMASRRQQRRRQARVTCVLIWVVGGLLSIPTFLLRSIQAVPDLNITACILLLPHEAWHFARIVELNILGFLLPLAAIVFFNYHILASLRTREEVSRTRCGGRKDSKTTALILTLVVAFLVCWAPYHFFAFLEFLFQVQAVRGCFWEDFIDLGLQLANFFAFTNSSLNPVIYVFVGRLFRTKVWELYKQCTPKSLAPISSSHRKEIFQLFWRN
# Experiment: Radioligand binding assay for human B1 bradykinin receptor ([3H]des-arg10 kallidin)
# Settings: membranes of CHO cells expressing human B1 receptor; read-out: binding Ki's to the hB1 receptor
# Protocol: Preparation of membranes expressing human B1 and human B2 bradykinin receptor. Membranes were prepared from CHO-d^−AQN cells stably transfected with human bradykinin B1 receptor cDNA. For large-scale production of membranes, cells were grown in 100 L suspension culture to 1.0E8 cells/mL then harvested using the Viafuge at continuous centrifugation of 1000 g. For pilot studies, cells were grown in 2 L spinner culture and harvested by centrifugation (1900 g, 10 min, 4° C.). […] The resulting cell lysate was centrifuged (1900 g, 10 min, 4° C.), and the crude particulate fraction isolated by centrifugation (142,000 g, 1 h, 4° C.) of the low-speed supernatant. The resulting pellet was resuspended in ⅓ the original lysis buffer volume, homogenized, and recentrifuged as above. The membrane pellet was resuspended by homogenization in storage buffer (25 mM HEPES, pH 7.4, 3 mM MgCl2, 10% (w/v) sucrose and Complete Protease Inhibitor tablets (EDTA-free)). Single-use aliquots were made and flash-frozen in liquid N2 prior to storage at −80° C.
# Radioligand Binding Assay for human B1 and human B2 bradykinin receptor. […] Membranes (50 μL) were added last. […] Nonspecific binding was defined with 2 μM des-Arg^10Leu^9 kallidin. […] The assay mixture was incubated with shaking for 1 hr at RT and then filtered through GF/C plates presoaked in 0.5% polyethyleneimine (Unifilter; Perkin Elmer Life Sciences) using a Filtermate 96-well harvester (Perkin Elmer Life Sciences). […] The plates were sealed and activity read on Topcount (Perkin Elmer Life Sciences) using a count time of 3 min per channel.
# Data analysis. Data was analyzed in XLFit with the four-parameter logistic y=A+((B-A)/(1+((C/x)^D))) and fit with the Levenburg-Marquardt algorithm. Raw cpm were converted to percent of control values prior to analysis (POC=((compound cpm−nonspecfic cpm)/(no-compound cpm−nonspecific cpm)*100)). Ki values were determined from the IC50 using the Cheng-Prusoff equation and Kd values determined by direct saturation binding of the radioligands.
row,SMILES,Ki
1,"CCN(CC)Cc1ccc2c(c1)OCCC2NC(=O)C[C@@H](NS(=O)(=O)c1ccc2ccccc2c1)c1ccccc1 (stereo partly shown) [Example 3l, N-(7-Diethylaminomethyl-chroman-4-yl)-3-(naphthalen-2-yl-sulfonylamino)-3-phenyl-propionamide]",< 100 nM
2,"CCN(Cc1ccc2c(c1)OCCC2NC(=O)C[C@@H](NS(=O)(=O)c1ccc2ccccc2c1)c1ccccc1)C(C)(C)C (stereo partly shown) [Example 3f, N-{7-[(tert-Butyl-ethyl-amino)-methyl]-chroman-4-yl}-3-(naphthalen-2-yl-sulfonylamino)-3-phenyl-propionamide]",< 100 nM
3,"C[C@@H]1CC[C@@H](C)N1Cc1ccc2c(c1)OCCC2NC(=O)C[C@@H](NS(=O)(=O)c1ccc2ccccc2c1)c1ccccc1 (stereo partly drawn) [Example 3h, N-[7-(2R, 5R-Dimethyl-pyrrolidin-1-ylmethyl)-chroman-4-yl]-3-(naphthalen-2-yl-sulfonylamino)-3-phenyl-propionamide]",< 100 nM
4,"O=C(C[C@@H](NS(=O)(=O)c1ccc2ccccc2c1)c1ccccc1)NC1CCOc2cc(CN3CCOCC3)ccc21 (stereo in doubt) [Example 3j, N-(7-Morpholin-4-ylmethyl-chroman-4-yl)-3-(naphthalen-2-yl-sulfonylamino)-3-phenyl-propionamide]",< 100 nM
5,"CN1CCN(Cc2ccc3c(c2)OCCC3NC(=O)C[C@@H](NS(=O)(=O)c2ccc3ccccc3c2)c2ccccc2)CC1 (stereo partly shown) [Example 1a, N-[7-(4-Methyl-piperazin-1-ylmethyl)-chroman-4-yl]-3-(naphthyl-2-ylsulfonylamino)-3-phenyl-propionamide]",< 100 nM
6,"CC(C)NCc1ccc2c(c1)OCCC2NC(=O)C[C@@H](NS(=O)(=O)c1ccc2ccccc2c1)c1ccccc1 (stereo partly shown) [Example 3, N-[7-(Isopropylamino-methyl)-chroman-4-yl]-3-(naphthalen-2-ylsulfonylamino)-3-phenyl-propionamide]",< 100 nM
7,"O=C(C[C@@H](NS(=O)(=O)c1ccc2ccccc2c1)c1ccccc1)NC1CCOc2cc(CN3CCCC3)ccc21 (stereo partly shown) [Example 1d, 3-(Naphthalen-2-ylsulfonylamino)-3-phenyl-N-(7-pyrrolidin-1-ylmethyl-chroman-4-yl)-propionamide]",< 100 nM
8,"O=C(C[C@@H](NS(=O)(=O)c1cc(Cl)cc(Cl)c1)c1ccccc1)NC1CCOc2cc(CN3CCCCC3)ccc21 (stereo in doubt) [Example 1h, 3-(3,5-Dichloro-benzenesulfonylamino)-3-phenyl-N-(7-piperidin-1-ylmethyl-chroman-4-yl)-propionamide]",< 100 nM
9,"O=C(C[C@@H](NS(=O)(=O)c1ccc(Cl)c(Cl)c1)c1ccccc1)NC1CCOc2cc(CN3CCCCC3)ccc21 (stereo partly shown) [Example 1f, 3-(3,4-Dichloro-benzenesulfonylamino)-3-phenyl-N-(7-piperidin-1-ylmethyl-chroman-4-yl)-propionamide]",< 100 nM
10,CC(C)N(C)Cc1ccc2c(c1)OCCC2NC(=O)C[C@@H](NS(=O)(=O)c1ccc2ccccc2c1)c1ccccc1 (stereo partly shown) [Example 3b],< 100 nM

# Other lines, results leading:
row,Ki,SMILES
1,< 100 nM,"O=C(C[C@@H](NS(=O)(=O)c1ccc2ccccc2c1)c1ccccc1)NC1CCc2cc(CN3CCCCC3)ccc21 (stereo partly shown) [Example 5a, 3-(Naphthalen-2-yl-sulfonylamino)-3-phenyl-N-(5-piperidin-1-ylmethyl-indan-1-yl)-propionamide]"
2,< 100 nM,"O=C(C[C@@H](NS(=O)(=O)c1ccc2ccccc2c1)c1ccccc1)NC1CCc2c(CN3CCCCC3)cccc21 (stereo partly shown) [Example 4a, 3-(Naphthalen-2-yl-sulfonylamino)-3-phenyl-N-(4-piperidin-1-ylmethyl-indan-1-yl)-propionamide]"
3,< 100 nM,"CN1c2cc(CN3CCCCC3)ccc2C(NC(=O)C[C@@H](NS(=O)(=O)c2ccc3ccccc3c2)c2ccccc2)CS1(=O)=O (stereo in doubt) [Example 13, 3-(Naphthalen-2-yl-sulfonylamino)-N-(1-methyl-2,2-dioxo-7-piperidin-1-ylmethyl-1,2,3,4-tetrahydro-2λ^6-benzo[c][1,2]thiazin-4-yl)-3-phenyl-propionamide]"

# Target: T2, human B1 receptor (Homo sapiens, UniProt P46663)
# T2 construct: expressed in transfected cells
# T2 sequence (P46663 1-353): T1 sequence (P46663 1-353)
# Experiment: In vitro assay of human B1 receptor function using calcium flux (aequorin luminescence)
# Format: cell-based
# Settings: CHO D-/hB1/Aequorin cells, agonist 20 nM des-Arg10-Kallidin (EC80); read-out: binding IC50's to hB1 receptor function
# Protocol: Activation of the Gq linked B1 receptor results in an increase in intracellular calcium. […] Aequorin is a 21-kDa photoprotein that forms a bioluminescent complex when linked to the chromophore cofactor coelenterazine.
# Following coelenterazine incubation, an automated flash-luminometer platform was used to dispense the B1 antagonist compounds (dissolved in DMSO and diluted with buffer to the desired concentration (final DMSO concentration <1% DMSO)) to the cell plate, a CCD camera situated underneath the cell plate took 12 images of the cell plate at 5 second intervals to determine if there was any agonist activity with the compounds. The hB1 agonist, des-Arg10-Kallidin, was added to the cell plate and another 12 images were recorded to determine the IC50 of the antagonist(s).
row,SMILES,IC50
1,CC(C)NCc1ccc2c(c1)CCC[C@H]2NC(=O)C[C@@H](NS(=O)(=O)c1ccc(Cl)c(Cl)c1)c1ccccc1,< 10 nM
2,"O=C(C[C@@H](NS(=O)(=O)c1ccc(Cl)c(Cl)c1)c1ccccc1)NC1CCOc2cc(CN3CCCCC3)ccc21 (stereo partly shown) [Example 1f, 3-(3,4-Dichloro-benzenesulfonylamino)-3-phenyl-N-(7-piperidin-1-ylmethyl-chroman-4-yl)-propionamide]",< 10 nM

# The next lines start with the values.
row,IC50,SMILES
1,< 10 nM,"O=C(C[C@@H](NS(=O)(=O)c1ccc2ccccc2c1)c1ccccc1)NC1CCc2cc(CN3CCCCC3)ccc21 (stereo partly shown) [Example 5a, 3-(Naphthalen-2-yl-sulfonylamino)-3-phenyl-N-(5-piperidin-1-ylmethyl-indan-1-yl)-propionamide]"
2,< 10 nM,"O=C(C[C@@H](NS(=O)(=O)c1ccc(Cl)c(Cl)c1)c1cccc(F)c1)N[C@@H]1CCCc2cc(CNC3CCCC3)ccc21 [dx, N-(6-Cyclopentylaminomethyl-1,2,3,4-tetrahydro-naphthalen-1-yl)-3-(3,4-dichloro-benzenesulfonylamino)-3-(3-fluoro-phenyl)-propionamide]"
3,< 10 nM,"COc1ccc([C@@H](CC(=O)N[C@@H]2CCCc3cc(CN4CCCCC4)ccc32)NS(=O)(=O)c2cc3cc(Cl)ccc3s2)cn1 [aw, (3R)-3-(((5-chloro-1-benzothien-2-yl)sulfonyl)amino)-3-(6-(methyloxy)-3-pyridinyl)-N-((1R)-6-(1-piperidinylmethyl)-1,2,3,4-tetrahydro-1-naphthalenyl)propanamide]"
4,< 10 nM,"O=C(C[C@@H](NS(=O)(=O)c1cccc(C(F)(F)F)c1)c1ccccc1)N[C@@H]1CCOc2cc(CN3CCCCC3)ccc21 [Example 166, (3R)-3-Phenyl-N-((4R)-7-(1-piperidinylmethyl)-3,4-dihydro-2H-chromen-4-yl)-3-(((3-(trifluoromethyl)phenyl)sulfonyl)amino)propanamide]"
5,< 10 nM,"O=C(CC(NS(=O)(=O)c1ccc(Cl)c(Cl)c1)c1ccc(F)cc1)NC1CCOc2cc(CN3CCCCC3)ccc21 (stereo not shown) [by, 3-(3,4-Dichloro-benzenesulfonylamino)-3-(4-fluoro-phenyl)-N-(7-piperidin-1-ylmethyl-chroman-4-yl)-propionamide]"
6,< 10 nM,"Cc1c(S(=O)(=O)N[C@H](CC(=O)NC2CCCc3cc(CN4CCCCC4)ccc32)c2ccccc2)sc2ccc(Cl)cc12 (stereo partly drawn) [ae, (3R)-3-(((5-chloro-3-methyl-1-benzothien-2-yl)sulfonyl)amino)-3-phenyl-N-(6-(1-piperidinylmethyl)-1,2,3,4-tetrahydro-1-naphthalenyl)propanamide]"
7,< 10 nM,"CC(C)CNCc1ccc2c(c1)CCC[C@H]2NC(=O)C[C@@H](NS(=O)(=O)c1ccc(Cl)c(Cl)c1)c1ccccc1 [bg, (3R)-3-(((3,4-dichlorophenyl)sulfonyl)amino)-N-((1R)-6-(((2-methylpropyl)amino)methyl)-1,2,3,4-tetrahydro-1-naphthalenyl)-3-phenylpropanamide]"
